In brackets after ≈: the same amount, converted by molar mass.
How the values were obtained:
Type in all cases: functional
[1] = test system: Mycobacterium tuberculosis; experiment: Minimum inhibitory concentration tested against Mycobacterium tuberculosis resistant clinical isolates; Range:1-4 ug/ml
[2] = test system: Mycobacterium tuberculosis; experiment: Minimum inhibitory concentration tested against Mycobacterium tuberculosis resistant clinical isolates
[3] = test system: Mycobacterium tuberculosis; experiment: Minimum inhibitory concentration tested against Mycobacterium tuberculosis resistant clinical isolates; Range 8-16 ug/mL
[4] = test system: Mycobacterium tuberculosis; experiment: Minimum inhibitory concentration tested against Mycobacterium tuberculosis resistant clinical isolates; Range 8->16 ug/mL

## O=C1c2ccccc2C(=O)N1CCCCCCN1CCN(CC/N=c2/cc3n(-c4ccc(Cl)cc4)c4ccccc4nc-3cc2Nc2ccc(Cl)cc2)CC1
[1]
  MIC: 4 µg/mL (≈ 5.18 µM)

## O=C1c2cccc3cccc(c23)C(=O)N1CCCN1CCN(CC/N=c2/cc3n(-c4ccc(Cl)cc4)c4ccccc4nc-3cc2Nc2ccc(Cl)cc2)CC1
[2]
  MIC: > 16 µg/mL

## O=C1c2ccccc2C(=O)N1CCCCN1CCN(CC/N=c2/cc3n(-c4ccc(Cl)cc4)c4ccccc4nc-3cc2Nc2ccc(Cl)cc2)CC1
[2]
  MIC: > 16 µg/mL

## O=C1c2cccc3cccc(c23)C(=O)N1CCCCCCN1CCN(CC/N=c2/cc3n(-c4ccc(Cl)cc4)c4ccccc4nc-3cc2Nc2ccc(Cl)cc2)CC1
[3]
  MIC: 16 µg/mL (≈ 19.4 µM)

## O=C1c2cccc3cccc(c23)C(=O)N1CCCCCN1CCN(CC/N=c2/cc3n(-c4ccc(Cl)cc4)c4ccccc4nc-3cc2Nc2ccc(Cl)cc2)CC1
[2]
  MIC: > 16 µg/mL

## O=C1c2cccc3cccc(c23)C(=O)N1CCCCN1CCN(CC/N=c2/cc3n(-c4ccc(Cl)cc4)c4ccccc4nc-3cc2Nc2ccc(Cl)cc2)CC1
[2]
  MIC: > 16 µg/mL

## O=C1c2ccccc2C(=O)N1CCCCCN1CCN(CC/N=c2/cc3n(-c4ccc(Cl)cc4)c4ccccc4nc-3cc2Nc2ccc(Cl)cc2)CC1
[1]
  MIC: 4 µg/mL (≈ 5.27 µM)

## O=C1c2ccccc2C(=O)N1CCCN1CCN(CC/N=c2/cc3n(-c4ccc(Cl)cc4)c4ccccc4nc-3cc2Nc2ccc(Cl)cc2)CC1
[2]
  MIC: > 16 µg/mL

## NNC(=O)c1ccncc1 [ISONIAZID]
[4]
  MIC: > 16 µg/mL

Source: ChEMBL document CHEMBL1143511, “Antitubercular agents. Part 1: synthesis of phthalimido- and naphthalimido-linked phenazines as new prototype antitubercular agents” (2005)
